Like-named read-outs stand apart in the source and are kept apart here.
Columns and labels:
Type in all cases: cell-based
IL-8 = assay: Inhibition of IL-8 production by stimulated human peripheral blood leukocytes in vitro; details: Homo sapiens, Leukocyte, PBL, read-out: Percentage of inhibition of IL-8 production; for inhibition at 10 µM: compound 10 μM; for inhibition at 50 µM: compound 50 μM
Procedure, shortened: (§1)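 Dextran-isolated human PBL (3-5×10^6 per well) in RPMI with 10% FCS were preincubated 2 h at 37 °C with compounds at 50 μM or 10 μM final, then stimulated overnight with 2 μg/mL LPS, 1 μg/mL PMA or 120 μg/mL zymosan. Supernatant cytokines by sandwich ELISA; % inhibition versus stimulated untreated control.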

A549 = assay: MTT cytotoxicity assay on A549 cell line; details: human, 24 h
Description: To determine whether the anti-inflammatory activity of the test compounds was due to observed inhibition of cytokine production and inhibition of proliferation in vitro, and was not a consequence of cellular cytotoxicity, measurement of succinate dehydrogenase activity in living cells was performed. Cells were cultured for 24 h in RPMI medium as described above at 37° C. in the presence of the test compounds at concentrations of 50 μM and 12.5 μM. MTT [3-(4,5-dimethylthiazole-2-yl)-2,5-diphenyl tetrazolium bromide] (Promega, USA), a detection reagent, was then added and the cultures were incubated for 0.5-2 h. The amount of MTT-Formazan produced was determined using a spectrophotometer at 490 nm (Mosmann, J. Imnunol. Methods, 1983, 65: 55-63). Percentage of viable cells was calculated using the following formula:
% viable cells=([…]OD490 treated cells/OD490 nontreated cells)×100

[1] = test system: human peripheral blood mononuclear cells (PBMC); assay: Human T-cell proliferation in vitro (3H-thymidine incorporation); details: Homo sapiens, PBMC, read-out: Percentage of inhibition of proliferation of stimulated PBMC; for inhibition at 10 µM: compound 10 μM; for inhibition at 50 µM: compound 50 μM
Procedure, shortened: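 Donor PBMC isolated on Histopaque, 5×10^4 cells/well cultured 3 days at 37 °C with PHA (2.5 μg/mL) or PMA (10 ng/mL) plus ionomycin (500 ng/mL), and compound at 50 μM or 10 μM. 3H-thymidine pulse during final 18 h; % inhibition versus stimulated untreated cpm.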

IL-6 = assay: Inhibition of IL-6 production by stimulated human peripheral blood leukocytes in vitro; details: Homo sapiens, Leukocyte, PBL, read-out: Percentage of inhibition of IL-6 production; for inhibition at 10 µM: compound 10 μM; for inhibition at 50 µM: compound 50 μM
Procedure, shortened: as §1

IL-1α = assay: Inhibition of IL-1 production by stimulated human peripheral blood leukocytes in vitro; details: Homo sapiens, Leukocyte, PBL, read-out: Percentage of inhibition of IL-1α production; for inhibition at 10 µM: compound 10 μM; for inhibition at 50 µM: compound 50 μM
TNF-α = assay: Inhibition of TNF-α production by stimulated human peripheral blood leukocytes in vitro; details: Homo sapiens, Leukocyte, PBL, read-out: Percentage of inhibition of TNF-α production; for inhibition at 10 µM: compound 10 μM; for inhibition at 50 µM: compound 50 μM
Procedure, shortened: as §1

SMILES | inhibition at 10 µM (IL-8; LPS stimulated) [%] | inhibition at 50 µM (IL-8; LPS stimulated) [%] | inhibition at 10 µM (IL-8; PMA stimulated) [%] | inhibition at 50 µM (IL-8; PMA stimulated) [%] | inhibition at 10 µM (IL-8; zymosan stimulated) [%] | inhibition at 50 µM (IL-8; zymosan stimulated) [%] | Percentage of viable cells after treatment (A549; 12.5 μM) [%] | Percentage of viable cells after treatment (A549; 50 μM) [%] | inhibition at 10 µM ([1]; PHA stimulated) [%] | inhibition at 50 µM ([1]; PHA stimulated) [%] | inhibition at 10 µM ([1]; PMA + ionomycin stimulated) [%] | inhibition at 50 µM ([1]; PMA + ionomycin stimulated) [%] | inhibition at 10 µM (IL-6; LPS stimulated) [%] | inhibition at 50 µM (IL-6; LPS stimulated) [%] | inhibition at 10 µM (IL-6; PMA stimulated) [%] | inhibition at 50 µM (IL-6; PMA stimulated) [%] | inhibition at 10 µM (IL-6; zymosan stimulated) [%] | inhibition at 50 µM (IL-6; zymosan stimulated) [%] | inhibition at 10 µM (IL-1α; LPS stimulated) [%] | inhibition at 50 µM (IL-1α; LPS stimulated) [%] | also measured
CC[C@H]1OC(=O)[C@H](C)[C@@H](O[C@H]2C[C@@](C)(OC)[C@@H](O)[C@H](C)O2)[C@H](C)[C@@H](O[C@@H]2O[C@H](C)C[C@H](N(C)C)[C@H]2O)[C@](C)(OC)C[C@@H](C)C(=O)[C@H](C)[C@@H](O)[C@]1(C)O [Clarithromycin, clarithromycin, reference compound] | 23 | 0 | 33 | 0 | 0 | 0 | 100 | 100 | 0 | 7 | 9 | 14 | 11 | 0 | 0 | 0 | 28 | 0 | 0 | 0 | inhibition at 10 µM (IL-1α; PMA stimulated): 26%; inhibition at 50 µM (IL-1α; PMA stimulated): 33%; inhibition at 10 µM (IL-1α; zymosan stimulated): 36%; inhibition at 50 µM (IL-1α; zymosan stimulated): 59%; inhibition at 10 µM (TNF-α; LPS stimulated): 0%; inhibition at 50 µM (TNF-α; LPS stimulated): 0%; inhibition at 10 µM (TNF-α; PMA stimulated): 0%; inhibition at 50 µM (TNF-α; PMA stimulated): 0%; inhibition at 10 µM (TNF-α; zymosan stimulated): 0%; inhibition at 50 µM (TNF-α; zymosan stimulated): 0%
CC[C@H]1OC(=O)[C@H](C)[C@@H](O[C@H]2C[C@@](C)(OC)[C@@H](O)[C@H](C)O2)[C@H](C)[C@@H](O[C@@H]2O[C@H](C)C[C@H](N(C)C)[C@H]2O)[C@](C)(O)C[C@@H](C)CN(C)[C@H](C)[C@@H](O)[C@]1(C)O [Azithromycin, azithromycin, reference compound] | 0 | 0 | 0 | 0 | 0 | 0 | 100 | 100 | 5 | 29 | 9 | 31 | 15 | 40 | 0 | 0 | 20 | 75 | 28 | 48 | inhibition at 10 µM (IL-1α; PMA stimulated): 0%; inhibition at 50 µM (IL-1α; PMA stimulated): 0%; inhibition at 10 µM (IL-1α; zymosan stimulated): 20%; inhibition at 50 µM (IL-1α; zymosan stimulated): 75%; inhibition at 10 µM (TNF-α; LPS stimulated): 36%; inhibition at 50 µM (TNF-α; LPS stimulated): 20%; inhibition at 10 µM (TNF-α; PMA stimulated): 0%; inhibition at 50 µM (TNF-α; PMA stimulated): 0%; inhibition at 10 µM (TNF-α; zymosan stimulated): 6%; inhibition at 50 µM (TNF-α; zymosan stimulated): 64%
